# US20120157717A1, “METHODS AND COMPOSITIONS FOR PRODUCING LINEAR ALKYL BENZENES” (LS9, INC., priority 2010, published 2012)
# Like-named read-outs stand apart in the source and are kept apart here.
# T1: PCC7942_orf1594 protein (Synechococcus elongatus, UniProt Q54765)
# T1 construct: His-tag (C); made in house; host or cells: E. coli BL21 (DE3)
# T1 sequence (Q54765 1-341): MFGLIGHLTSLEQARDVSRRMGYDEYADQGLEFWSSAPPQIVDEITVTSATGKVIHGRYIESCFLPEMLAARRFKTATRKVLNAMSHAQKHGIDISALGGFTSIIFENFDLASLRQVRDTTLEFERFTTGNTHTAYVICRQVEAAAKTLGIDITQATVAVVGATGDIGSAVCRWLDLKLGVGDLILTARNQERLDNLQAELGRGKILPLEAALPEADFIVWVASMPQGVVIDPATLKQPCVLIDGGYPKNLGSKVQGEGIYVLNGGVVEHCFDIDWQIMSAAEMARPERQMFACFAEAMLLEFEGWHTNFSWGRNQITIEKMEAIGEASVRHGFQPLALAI
# Columns and labels:
# PCC7942_orf1594 protein = biological target: T1, PCC7942_orf1594 protein; assay: acyl-ACP or acyl-CoA reductase enzyme assay (aldehyde formed, GC/MS); format: biochemical, Synechococcus elongatus PCC7942
# Experimental: The genomic DNA encoding S. elongatus […] orf1594 (SEQ ID NO:65) was cloned into the NcoI and XhoI sites of vector pET-28b under the control of the T7 promoter. The resulting PCC7942_orf1594 protein contained a C-terminal His-tag. An E. coli BL21 strain (DE3) (Invitrogen) was transformed with the plasmid and PCC7942_orf1594 protein was expressed and purified as described in Example 22. The protein solution was stored in the following buffer: 50 mM sodium phosphate, pH 7.5, 100 mM NaCl, 1 mM THP, 10% glycerol. Protein concentration was determined using the Bradford assay (Biorad). 2 mg/mL of PCC7942_orf1594 protein was obtained.
# To test PCC7942_orf1594 protein for acyl-ACP or acyl-CoA reductase activity, the following enzyme assays were set-up. 100 μL reactions were set-up in 50 mM Tris-HCl buffer at pH 7.5 with the following components at their respective final concentrations: 10 μM of purified PCC7942_orf1594 protein, 0.01-1 mM acyl-CoA or acyl-ACP, 2 mM MgCl2, 0.2-2 mM NADPH. The reactions were incubated for 1 h at 37° C. and where stopped by adding 100 μL ethyl acetate (containing 5 mg/l 1-octadecene as internal standard). Samples were vortexed for 15 min and centrifuged at max speed for 3 min for phase separation. 80 μL of the top layer were transferred into GC glass vials and analyzed by GC/MS as described in Example 26. The amount of aldehyde formed was calculated based on the internal standard.
# [1] = test system: Prochlorococcus marinus CCMP1986 PMM0532 (NP-892650; putative decarbonylase)
# [2] = in the presence of 2 mM NADPH, 10 μM purified enzyme, 2 mM MgCl2, pH 7.5, 1 h at 37° C., read-out: Km for the reduction of the acyl substrate
molecule,measurement,setting,value
"NC(=O)C1=CN([C@@H]2O[C@H](COP(=O)(O)OP(=O)(O)OC[C@H]3O[C@@H](n4cnc5c(N)ncnc54)[C@H](OP(=O)(O)O)[C@@H]3O)[C@@H](O)[C@H]2O)C=CC1 [NADPH, reference compound]",Km,"PCC7942_orf1594 protein; in the presence of 0.5 mM octadecanoyl-CoA, read-out: Km value for NADPH",400 ± 80 µM
CCCCCCCCCCCCCCCCCC(=O)SCCNC(=O)CCNC(=O)[C@H](O)C(C)(C)COP(=O)(O)OP(=O)(O)OC[C@H]1O[C@@H](n2cnc3c(N)ncnc32)[C@H](O)[C@@H]1OP(=O)(O)O [octadecanoyl-CoA],Km,PCC7942_orf1594 protein; [2],45 ± 20 µM
Prochlorococcus marinus CCMP1986 PMM0533 (NP-892651; putative aldehyde-generating enzyme),hydrocarbon and fatty alcohol production by cotransformed E. coli MG1655 (GC/MS),[1],"E. coli cells transformed with only the P. marinus CCMP1986 PMM0533-bearing vector did not produce any fatty aldehydes or fatty alcohols. However, E. coli cells cotransformed with PMM0533 and PMM0532-bearing vectors produced hexadecanol, pentadecane and heptadecene"
octadecenoyl-ACP,Km,PCC7942_orf1594 protein; [2],7.8 ± 2 µM
octadecenoyl-CoA,Km,PCC7942_orf1594 protein; [2],82 ± 22 µM
"Synechococcus elongatus PCC7942 YP-400611 (Synpcc7942-1594) acyl-ACP reductase, purified with C-terminal His-tag (protein) MFGLIGHLTSLEQARDVSRRMGYDEYADQGLEFWSSAPPQIVDEITVTSATGKVIHGRYIESCFLPEMLAARRFKTATRKVLNAMSHAQKHGIDISALGGFTSIIFENFDLASLRQVRDTTLEFERFTTGNTHTAYVICRQVEAAAKTLGIDITQATVAVVGATGDIGSAVCRWLDLKLGVGDLILTARNQERLDNLQAELGRGKILPLEAALPEADFIVWVASMPQGVVIDPATLKQPCVLIDGGYPKNLGSKVQGEGIYVLNGGVVEHCFDIDWQIMSAAEMARPERQMFACFAEAMLLEFEGWHTNFSWGRNQITIEKMEAIGEASVRHGFQPLALAI","Km for the reduction of octadecenoyl-ACP in the presence of 2 mM NADPH (in vitro reductase assay, GC/MS)",octadecenoyl-ACP,7.8 ± 2 µM
